Measurements taken from patent US7888050B2, “Method for quantifying phosphokinase activity on proteins” (Life Technologies Corporation, priority 2000, dated 2011).

Biological target: T1, human EGFR (Homo sapiens, UniProt P00533)
T1 construct: purchased Sigma E-2645; host or cells: A431 human carcinoma cells (natural source)
Assay: EGFR autophosphorylation, EGFR [pY845] PSSA ELISA
Format: biochemical
Conditions: purified human EGFR, 1 uM ATP, 30 minutes at 30° C.; FIG. 16

T1 sequence (P00533 25-1210): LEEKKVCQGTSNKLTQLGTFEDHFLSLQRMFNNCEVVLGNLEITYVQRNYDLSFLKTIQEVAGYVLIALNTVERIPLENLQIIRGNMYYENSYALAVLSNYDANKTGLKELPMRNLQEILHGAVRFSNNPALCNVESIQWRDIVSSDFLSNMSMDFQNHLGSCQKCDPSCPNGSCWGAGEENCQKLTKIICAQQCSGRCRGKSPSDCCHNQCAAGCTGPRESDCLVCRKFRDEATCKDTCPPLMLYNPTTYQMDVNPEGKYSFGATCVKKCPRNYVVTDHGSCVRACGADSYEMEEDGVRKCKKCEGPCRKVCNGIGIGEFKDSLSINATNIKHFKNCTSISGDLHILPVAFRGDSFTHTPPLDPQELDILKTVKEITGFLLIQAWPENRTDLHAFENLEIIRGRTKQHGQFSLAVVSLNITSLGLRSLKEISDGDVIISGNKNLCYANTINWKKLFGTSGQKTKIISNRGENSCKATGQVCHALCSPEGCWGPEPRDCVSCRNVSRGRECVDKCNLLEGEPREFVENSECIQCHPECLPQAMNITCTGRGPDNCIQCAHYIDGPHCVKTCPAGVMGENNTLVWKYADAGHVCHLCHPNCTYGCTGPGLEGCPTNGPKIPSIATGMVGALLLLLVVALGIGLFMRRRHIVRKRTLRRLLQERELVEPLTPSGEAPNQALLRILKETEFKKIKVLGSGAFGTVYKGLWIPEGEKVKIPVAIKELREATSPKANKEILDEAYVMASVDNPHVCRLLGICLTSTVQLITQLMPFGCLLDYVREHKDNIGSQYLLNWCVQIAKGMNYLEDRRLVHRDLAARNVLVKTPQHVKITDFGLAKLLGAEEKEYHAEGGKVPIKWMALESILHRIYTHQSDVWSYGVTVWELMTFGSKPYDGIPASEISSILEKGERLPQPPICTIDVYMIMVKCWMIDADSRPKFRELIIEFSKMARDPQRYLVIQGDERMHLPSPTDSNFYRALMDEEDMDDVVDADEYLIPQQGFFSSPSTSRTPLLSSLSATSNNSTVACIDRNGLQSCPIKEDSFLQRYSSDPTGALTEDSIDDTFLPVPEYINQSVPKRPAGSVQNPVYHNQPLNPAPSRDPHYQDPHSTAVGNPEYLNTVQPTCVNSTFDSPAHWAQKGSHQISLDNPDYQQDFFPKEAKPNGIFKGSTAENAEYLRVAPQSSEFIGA

EGFR [pY845] phosphorylation (autophosphorylation): inhibition of that activity
SMILES: CNc1cc2c(Nc3cccc(Br)c3)ncnc2cn1 [PD158780]
